These results are taken from ChEMBL document CHEMBL1201862, “PubChem BioAssay data set” (2004).

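Exposure lasted 48 hours, with cells grown in 96-well plates and compounds tested at five concentrations. Here, GI50 denotes the concentration required for 50% inhibition of growth.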 The source made the active and inactive calls. Rule as the data show it: active = GI50 up to about 1.1 µM and inactive = higher. A value given as a limit tells only on which side of the number the result lay.

Holding throughout (assay): NCI tumour cell line growth inhibition, 48 h
Assay [1] deals with A549.
The subject of assay [2] is BT-549.
For assay [3], the system named is HOP-62.
Assay [4] concerns HT-29.
Assay [5] concerns K562.
Assay [6] relates to LOX IMVI.
Assay [7] deals with MDA-N.
Assay [8] concerns Malme-3M.
The subject of assay [9] is NCI-H460.
Assay [10] concerns OVCAR-8.
The test system of assay [11] is PC-3.
For assay [12], the system named is RPMI-8226.
Assay [13] concerns SK-MEL-2.
Assay [14] concerns SK-OV-3.
For assay [15], the system named is SNB-19.
The test system of assay [16] is SW-620.
For assay [17], the system named is T47D.
Assay [18] deals with U-251.
In assay [19] the test system is HOP-92.
For assay [20], the system named is IGROV-1.

As to `COC(=O)C1(N2CCOCC2)CCC([C@@H](c2ccccc2)C(C)[N+](=O)[O-])C1` (stereo partly drawn), the GI50 was > 100 µM (inactive) in assay [1]; 16.8 µM (inactive) in assay [2]; > 100 µM (inactive) in [3]; > 100 µM (inactive) in assay [4]; 51.6 µM (inactive) in assay [5]; 39 µM (inactive) in assay [6]. The GI50 in assay [7] was > 100 µM (inactive); in [8], > 100 µM (inactive); in assay [9], > 100 µM (inactive); in [10], > 100 µM (inactive); in assay [11], > 100 µM (inactive); in assay [12] it was 13 µM (inactive). In addition, the GI50 in assay [13] was > 100 µM (inactive); in assay [14] it was > 100 µM (inactive); in assay [15], > 100 µM (inactive); in assay [16], 45.2 µM (inactive); in assay [17], 2.03 µM (inactive); in assay [18], > 100 µM (inactive).

Consider `Cc1ccc(C)c2c1C/C(=C\c1ccccc1C(=O)O)C2=O`, for which the GI50 is 90.8 µM (inactive) in assay [1]; > 100 µM (inactive) in assay [2]; > 100 µM (inactive) in [3]; > 100 µM (inactive) in assay [19]; > 100 µM (inactive) in [4]; > 100 µM (inactive) in [20]. Also, the GI50 in assay [5] is 87.7 µM (inactive); in assay [6] it was 54.2 µM (inactive); in [7], 87.3 µM (inactive); in assay [8], > 100 µM (inactive); in assay [9], > 100 µM (inactive); in [10] it was > 100 µM (inactive). Also, the GI50 was > 100 µM (inactive) in assay [11]; 27.7 µM (inactive) in assay [12]; 81.3 µM (inactive) in assay [15]; > 100 µM (inactive) in [16]; > 100 µM (inactive) in assay [17]; 88.3 µM (inactive) in assay [18].

Take `COc1nc2ccc(Cl)c(C(O)c3ccccc3)c2nc1OC` (stereo not drawn): the GI50 in assay [1] was 23.8 µM (inactive); in assay [2] it was 30.9 µM (inactive); in [3], 16.5 µM (inactive); in [19], 12.9 µM (inactive); in [4] it was 29.9 µM (inactive); in assay [20], 24.8 µM (inactive). In addition, the GI50 in assay [5] is 18.6 µM (inactive); in assay [6] it was 17.5 µM (inactive); in assay [7] it was 11.5 µM (inactive); in [8] it was 32.9 µM (inactive); in assay [9], 25.8 µM (inactive); in [10], 29 µM (inactive). The GI50 in [11] is 26.5 µM (inactive); in assay [12], 14.1 µM (inactive); in assay [13], 18.5 µM (inactive); in [15], 24.9 µM (inactive); in assay [16] it was 26.7 µM (inactive); in [17] it was 19.8 µM (inactive). For the same molecule, in [18], the GI50 is 25.3 µM (inactive).

As to `N#CCC1COc2ccccc2O1` (stereo not drawn), the GI50 in [1], in assay [2], in assay [3], in [19], in [4] and in [20] was > 10 µM (inactive) each time. The GI50 in [5], in assay [6], in [7], in assay [8], in assay [10] and in [11] was > 10 µM (inactive) each time. In addition, the GI50 in assay [12], in assay [14], in assay [15], in [16], in [17] and in assay [18] was > 10 µM (inactive) each time.

With `C[C@H](CCC(=O)O)[C@H]1CC[C@H]2[C@@H]3C(=O)C[C@@H]4C[C@H](O)CC[C@]4(C)[C@H]3C[C@H](O)[C@]12C`, the GI50 in [1], in [2], in assay [3], in assay [19], in [4] and in [20] was > 100 µM (inactive) in each case. For the same molecule, the GI50 in assay [5], in assay [6], in assay [7], in assay [8], in assay [9] and in assay [10] was > 100 µM (inactive) in each case. In addition, the GI50 in [11], in assay [12], in [13], in assay [15], in assay [16] and in assay [17] was > 100 µM (inactive) each time. The GI50 in assay [18] is > 100 µM (inactive).

In the case of `COc1ccc(-c2nc3c(C(=O)NCCN(C)C)cccc3c3ccccc23)cc1`, the GI50 in assay [1] is 3.1 µM (inactive); in [2], 10.5 µM (inactive); in assay [3] it was 3.06 µM (inactive); in assay [19] it was 3.51 µM (inactive); in assay [4], 2.51 µM (inactive); in assay [20], 3.47 µM (inactive). For the same molecule, the GI50 in assay [5] is 2.06 µM (inactive); in [6], 1.5 µM (inactive); in [7], 2.26 µM (inactive); in assay [8], 4.3 µM (inactive); in assay [9] it was 2.45 µM (inactive); in assay [10], 4.4 µM (inactive). Moreover, the GI50 is 3.73 µM (inactive) in assay [11]; 5.21 µM (inactive) in assay [13]; 3.42 µM (inactive) in [15]; 3.62 µM (inactive) in assay [16]; 8.99 µM (inactive) in assay [17]; 2.86 µM (inactive) in assay [18].

As to `COCCOC(=O)C(C)=[N+]=[N-]`, the GI50 in [2], in assay [3], in assay [4], in assay [20], in assay [5] and in [6] was > 100 µM (inactive) throughout. In addition, the GI50 in [7], in [8], in [9], in assay [10], in assay [11] and in assay [12] was > 100 µM (inactive) each time. The GI50 in assay [15], in assay [16], in [17] and in assay [18] was > 100 µM (inactive) each time.

`C1=C(c2ccccc2)C(N2CCOCC2)Oc2ccccc21` (stereo not drawn): the GI50 in [1] is > 100 µM (inactive); in [2], 45.3 µM (inactive); in assay [3] it was > 100 µM (inactive); in [19] it was > 100 µM (inactive); in [4], > 100 µM (inactive); in [20] it was > 100 µM (inactive). Besides, the GI50 in [5] was 91.8 µM (inactive); in [6], > 100 µM (inactive); in assay [7], 92.5 µM (inactive); in assay [8], > 100 µM (inactive); in assay [9] it was > 100 µM (inactive); in assay [10] it was > 100 µM (inactive). Moreover, the GI50 in assay [11] was 77.4 µM (inactive); in [12], 96.4 µM (inactive); in assay [14], > 100 µM (inactive); in assay [15], > 100 µM (inactive); in [16] it was > 100 µM (inactive); in assay [17], > 100 µM (inactive). In addition, the GI50 in [18] is > 100 µM (inactive).

As for `COc1ccc(/C=C2\CCC(C)C3C2=NN(c2ccccc2)C3c2ccc(OC)c(OC)c2)cc1OC` (stereo not drawn), the GI50 in [2] was 3.24 µM (inactive); in assay [4] it was 3.54 µM (inactive); in [20], 2.32 µM (inactive); in assay [5], 2.01 µM (inactive); in assay [6], 2.49 µM (inactive); in [7], 3.94 µM (inactive). For the same molecule, the GI50 in [8] was 3.08 µM (inactive); in [10], 3.28 µM (inactive); in assay [11], 3.5 µM (inactive); in assay [12], 1.23 µM (inactive); in [13], 3.04 µM (inactive); in assay [14], 4.23 µM (inactive). Also, the GI50 is 8 µM (inactive) in assay [15], 4.22 µM (inactive) in assay [16], 1.71 µM (inactive) in assay [17] and 4.33 µM (inactive) in assay [18].

`O=C1CC(CC(O)C(O)CO)CC(=O)N1` (stereo not drawn): the GI50 in assay [1], in [2], in assay [3], in [19], in [4] and in assay [20] was > 100 µM (inactive) in each case. Further, the GI50 in assay [5], in [6], in assay [7], in [8], in [9] and in assay [10] was > 100 µM (inactive) in each case. For the same molecule, the GI50 in assay [11], in [12], in [15], in [16], in assay [17] and in assay [18] was > 100 µM (inactive) throughout.

Regarding `CC(=O)c1[nH]c(NCc2ccccc2)c(C(=S)Nc2ccccc2)c1N`, the GI50 in assay [1] is 27 µM (inactive); in [2] it was 23.5 µM (inactive); in [3], 19.9 µM (inactive); in assay [19], 14.9 µM (inactive); in assay [4], 31.3 µM (inactive); in [20], 0.317 µM (active). In addition, the GI50 in [5] was 24.9 µM (inactive); in assay [6], 17.4 µM (inactive); in assay [7] it was 18.7 µM (inactive); in assay [8], 19.7 µM (inactive); in assay [9], 22.8 µM (inactive); in [10], 18.6 µM (inactive). For the same molecule, the GI50 is 39.6 µM (inactive) in assay [11]; 0.258 µM (active) in [13]; > 100 µM (inactive) in [14]; 34.3 µM (inactive) in assay [15]; 32.1 µM (inactive) in assay [16]; 22 µM (inactive) in assay [17]. Also, the GI50 in assay [18] was 17.3 µM (inactive).
